Test results from PMC8386120, “Crystal Structure of Inorganic Pyrophosphatase From Schistosoma japonicum Reveals the Mechanism of Chemicals and Substrate Inhibition” (Frontiers in Cell and Developmental Biology, 2021).

Columns and labels:
SjPPase [1] = target: T1, SjPPase (Schistosoma japonicum, UniProt Q5DE13); assay: Pi release, PiPer fluorescence phosphate assay; type: biochemical; parameters: homodimer; crystal residues 1-284 and 1-283; settings: 1 and 2 mM MDP; PPi substrate, Mg2+, 25 C
T1 sequence (Q5DE13 1-287): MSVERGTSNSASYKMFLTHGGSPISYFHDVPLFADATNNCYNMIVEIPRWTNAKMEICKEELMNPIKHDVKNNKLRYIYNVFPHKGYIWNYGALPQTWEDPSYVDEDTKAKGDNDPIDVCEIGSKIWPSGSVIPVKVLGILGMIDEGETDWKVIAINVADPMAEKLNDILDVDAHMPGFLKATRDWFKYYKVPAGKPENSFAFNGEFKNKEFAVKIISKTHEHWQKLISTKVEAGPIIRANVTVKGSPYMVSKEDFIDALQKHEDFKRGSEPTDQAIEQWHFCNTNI

SjPPase [2] = target: T1, SjPPase; settings: Co2+ bound; active site, P2 site (F intermediate)
[3] = target: Schistosoma japonicum soluble inorganic pyrophosphatase (recombinant SjPPase) (Schistosoma japonicum); assay: crystal structure; X-ray crystal structures of apo-SjPPase (4QMB) and of SjPPase with Pi and cobalt ions (4QLZ); space group P32, two molecules in the asymmetric unit; first crystals from 0.2 M sodium malonate, 20% PEG 3,350, later optimised; protein at 16-18 mg/ml

In the case of `O=P(O)(O)CP(=O)(O)O` [methylene diphosphonic acid], the inhibition (SjPPase [1]) is reported as “inhibitors NaF and MDP inhibited the enzymatic activity of SjPPase”.
`O=P(O)(O)O` [orthophosphate] was tested, and the “X-ray crystal structure, 2.33 A” value (SjPPase [2]) was “the Pi in the SjPPase-Pi complex structure is at the P2 site”.
Work on “Schistosoma japonicum soluble inorganic pyrophosphatase (recombinant SjPPase) (enzyme)” yielded a stoichiometry N [3] of 2.
